Laboratory results: article PMC9405123, “Design, Synthesis and Mechanistic Studies of Novel Isatin-Pyrazole Hydrazone Conjugates as Selective and Potent Bacterial MetAP Inhibitors” (Antibiotics, 2022)
≈ marks a conversion by molar mass, not a printed value. Read-outs that look alike come from different tables or passages of the source.

Experiments:
K. pneumoniae [1] = test: Growth inhibition screening (broth dilution); format: cell-based, Klebsiella pneumonia; settings: Klebsiella pneumoniae
Method: (§1) In vitro screening of the compounds (PS1–14) was performed to assess the antibacterial activity against three Gram-positive (Staphylococcus aureus, Enterococcus faecalis and Bacillus subtilis,) and three Gram-negative (Pseudomonas aeruginosa, Klebsiella pneumonia and Escherichia coli) bacterial strains using the standard NCCLS broth dilution assay. The study’s standard drugs were ciprofloxacin (CIP) and ampicillin (AMP). Compounds were dissolved in a polar solvent (DMSO) and distributed into a 96-well plate in 200 µL of nutrient broth medium, with a final concentration of the compounds […] in each well. The bacterial cells (about 2.5 × 10^5 cells/mL) were inoculated into each well and incubated at 37 °C overnight. After incubation, the growth was measured by turbidity of the culture at 590 nm by spectrophotometer.

EfMetAP1a = EfMetAP1a (Enterococcus faecalis, UniProt Q832M5); test: MetAP enzyme inhibition, Morrison Ki (Met-AMC fluorescence); format: biochemical; settings: Morrison Ki method
E. faecalis [2] = test: Growth inhibition screening (broth dilution); format: cell-based, Enterococcus faecalis; settings: Enterococcus faecalis
Method: as §1

K. pneumoniae [3] = test: Minimum bactericidal concentration; format: cell-based, Klebsiella pneumonia
P. aeruginosa [4] = test: Minimum bactericidal concentration; format: cell-based, Pseudomonas aeruginosa
E. coli [5] = test: Growth inhibition screening (broth dilution); format: cell-based, Escherichia coli; settings: Escherichia coli
Method: as §1

B. subtilis [6] = test: Growth inhibition screening (broth dilution); format: cell-based, Bacillus subtilis; settings: Bacillus subtilis
Method: as §1

S. aureus [7] = test: Minimum bactericidal concentration; format: cell-based, Staphylococcus aureus
E. coli [8] = test: Minimum bactericidal concentration; format: cell-based, Escherichia coli
P. aeruginosa [9] = test: Minimum inhibitory concentration (broth dilution); format: cell-based; settings: Pseudomonas aeruginosa, alone
SpMetAP1a = SpMetAP1a (Streptococcus pneumoniae, UniProt Q8DPV1); test: MetAP enzyme inhibition, Morrison Ki (Met-AMC fluorescence); format: biochemical; settings: Morrison Ki method
B. subtilis [10] = test: Minimum bactericidal concentration; format: cell-based, Bacillus subtilis
HsMetAP1b = target: T1, HsMetAP1b (Homo sapiens, UniProt P53582); test: MetAP enzyme inhibition, Morrison Ki (Met-AMC fluorescence); format: biochemical, H. sapiens; settings: Morrison Ki method
T1 construct: made in house

E. faecalis [11] = test: Minimum inhibitory concentration (broth dilution); format: cell-based; settings: Enterococcus faecalis, alone
K. pneumoniae [12] = test: Minimum inhibitory concentration (broth dilution); format: cell-based, Klebsiella pneumonia; settings: alone
MtMetAP1c = target: T2, MtMetAP1c (Mycobacterium tuberculosis, UniProt P9WK19); test: MetAP enzyme inhibition, Morrison Ki (Met-AMC fluorescence); format: biochemical, M. tuberculosis; settings: Morrison Ki method
T2 construct: made in house
Method: MetAP appears to serve a vital role in the co- or post-translational modification of proteins, making it essential for bacterial cell metabolism and survival. In this study, all enzymes, which were used for this study, including MtMetAP1c (M. tuberculosis), EfMetAP1a (E. faecalis), SpMetAP1a (S. pneumoniae) and HsMetAP1b (H. sapiens) enzymes, were expressed and purified in our lab as previously reported. All compounds prepared 10 mM stocks in DMSO and were used for enzyme inhibition studies. The concentration of each enzyme is adjusted such that they have similar reaction rates (HsMetAp1b, 1 µM; SpMetAP1a, 5 µM; EfMetAP1a, 1 µM; MtMetAP1c, 1 µM;) as reported earlier. All assays were performed in […] reaction containing 50 mM HEPES (pH 7.5 for SpMetAP1a and HsMetAP1b; 8.0 for EfMetAP1a, MtMetAP1c, […]), 150 mM NaCl, and CoCl2 (three molar equivalents of corresponding enzymes). The reaction was started by adding 50 μM L-Methionine 7-amido-4-methyl coumarin (Met-AMC) and continuously monitoring the fluorescence of released 7-amino-4-methyl coumarin (AMC) (380 nm excitation and 460 nm emission) in a microplate multimode reader (TECAN, Austria). The maximum percentage of inhibition against enzymes is calculated at […] compound concentration. […] The Ki values were determined according to the Morrison method using three different concentrations of substrates and ten different concentrations of the inhibitor. All experiments were performed in triplicate. GraphPad Prism version 8.0.0 (San Diego, CA, USA) was used to determine all the kinetic parameters.

P. aeruginosa [13] = test: Growth inhibition screening (broth dilution); format: cell-based, Pseudomonas aeruginosa; settings: Pseudomonas aeruginosa
Method: as §1

S. aureus [14] = test: Growth inhibition screening (broth dilution); format: cell-based, Staphylococcus aureus; settings: Staphylococcus aureus
Method: as §1

B. subtilis [15] = test: Minimum inhibitory concentration (broth dilution); format: cell-based; settings: Bacillus subtilis, alone
E. coli [16] = test: Minimum inhibitory concentration (broth dilution); format: cell-based, Escherichia coli; settings: Escherichia coli, alone, read-out: MIC
E. faecalis [17] = test: Minimum bactericidal concentration; format: cell-based, Enterococcus faecalis
S. aureus [18] = test: Minimum inhibitory concentration (broth dilution); format: cell-based; settings: Staphylococcus aureus, alone
Staphylococcus aureus = settings: cited from earlier work

T2 sequence (P9WK19 whole entry): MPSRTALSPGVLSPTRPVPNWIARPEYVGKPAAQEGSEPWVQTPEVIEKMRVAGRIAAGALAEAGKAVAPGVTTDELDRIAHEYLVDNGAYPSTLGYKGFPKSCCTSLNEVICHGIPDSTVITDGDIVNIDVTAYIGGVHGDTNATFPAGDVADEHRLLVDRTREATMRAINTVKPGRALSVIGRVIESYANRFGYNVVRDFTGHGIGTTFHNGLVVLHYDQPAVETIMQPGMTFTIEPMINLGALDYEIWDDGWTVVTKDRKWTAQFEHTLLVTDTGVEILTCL
EfMetAP1a, sequence (Q832M5 entry or part of it): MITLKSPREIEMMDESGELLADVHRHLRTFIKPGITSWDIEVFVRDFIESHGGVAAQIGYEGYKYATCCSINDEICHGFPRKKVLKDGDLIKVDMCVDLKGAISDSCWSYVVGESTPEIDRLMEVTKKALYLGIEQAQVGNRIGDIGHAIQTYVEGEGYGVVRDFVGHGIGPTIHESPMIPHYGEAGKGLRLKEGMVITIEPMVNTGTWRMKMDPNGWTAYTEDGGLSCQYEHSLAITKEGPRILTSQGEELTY
SpMetAP1a, sequence (Q8DPV1 entry or part of it): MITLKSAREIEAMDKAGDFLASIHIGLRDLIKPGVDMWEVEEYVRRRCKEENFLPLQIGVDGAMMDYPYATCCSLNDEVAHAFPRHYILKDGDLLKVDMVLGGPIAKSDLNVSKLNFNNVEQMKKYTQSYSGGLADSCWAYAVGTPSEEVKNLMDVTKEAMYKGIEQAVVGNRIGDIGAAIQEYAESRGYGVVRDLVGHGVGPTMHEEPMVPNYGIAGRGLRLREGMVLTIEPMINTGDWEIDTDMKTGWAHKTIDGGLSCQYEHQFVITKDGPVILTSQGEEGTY

SMILES: O=C1Nc2cc(Cl)ccc2/C1=N\NC(=O)c1cc(-c2cccc(Br)c2)n[nH]1 [PS3, (E)-3-(3-Bromophenyl)-N′-(6-Chloro-2-Oxoindolin-3-Ylidene)-1H-Pyrazole-5-Carbohydrazide]
- inhibition at 250 µg/mL (K. pneumoniae [1]): 97%
- Ki (EfMetAP1a): 4.63 ± 0.87 µM
- inhibition at 250 µg/mL (E. faecalis [2]): 60%
- MBC/MIC Ratio (R*) (K. pneumoniae [3]): 8
- MBC (K. pneumoniae [3]; Klebsiella pneumoniae): 512 µg/mL (≈ 1150 µM)
- MBC/MIC Ratio (R*) (P. aeruginosa [4]): 8
- MBC (P. aeruginosa [4]; Pseudomonas aeruginosa): 256 µg/mL (≈ 576 µM)
- inhibition at 250 µg/mL (E. coli [5]): 89%
- melting point: 182 to 185 °C
- inhibition at 250 µg/mL (B. subtilis [6]): 89%
- MBC/MIC Ratio (R*) (S. aureus [7]): 1
- MBC (S. aureus [7]; Staphylococcus aureus): 128 µg/mL (≈ 288 µM)
- MBC/MIC Ratio (R*) (E. coli [8]): 2
- MBC (E. coli [8]; Escherichia coli): 256 µg/mL (≈ 576 µM)
- MIC (P. aeruginosa [9]): 32 µg/mL (≈ 72 µM)
- Ki (SpMetAP1a): 1.79 ± 0.08 µM
- MBC/MIC Ratio (R*) (B. subtilis [10]): 2
- MBC (B. subtilis [10]; Bacillus subtilis): 128 µg/mL (≈ 288 µM)
- Ki (HsMetAP1b): 332 ± 10.9 µM
- MIC (E. faecalis [11]): 128 µg/mL (≈ 288 µM)
- MIC (K. pneumoniae [12]; Klebsiella pneumoniae, read-out: MIC): 32 µg/mL (≈ 72 µM)
- MIC (K. pneumoniae [12]): 64 µg/mL (≈ 144 µM)
- Ki (MtMetAP1c): 2.32 ± 0.28 µM
- inhibition at 250 µg/mL (P. aeruginosa [13]): 90%
- inhibition at 250 µg/mL (S. aureus [14]): 64%
- MIC (B. subtilis [15]): 64 µg/mL (≈ 144 µM)
- MIC (E. coli [16]): 128 µg/mL (≈ 288 µM)
- MBC/MIC Ratio (R*) (E. faecalis [17]): 2
- MBC (E. faecalis [17]; Enterococcus faecalis): 256 µg/mL (≈ 576 µM)
- MIC (S. aureus [18]): 128 µg/mL (≈ 288 µM)

SMILES: O=C1Nc2ccc(Cl)cc2/C1=N/NC(=O)c1ccc(N2C(=O)/C(=C\c3ccccc3)N=C2c2ccccc2)cc1 [B]
- MIC (Staphylococcus aureus): 12 µg/mL (≈ 22 µM)

SMILES: Cn1nc(C(=O)NC(=O)Nc2ccccc2)c(C(=O)c2ccccc2)c1-c1ccccc1 [D]
- MIC (Staphylococcus aureus): 310 µg/mL (≈ 730 µM)
